# Measurements: patent US8110689B2, “Benzanilides with insecticidal activity” (Bayer Cropsciene AG, priority 2006, dated 2012)
# Test system: not given
# Conditions: not given
row,melting point [°C],SMILES
1,155 to 158,Cc1cc(Cc2cc(C(F)(F)F)cc(C(F)(F)F)c2)ccc1NC(=O)c1cccc(Cl)c1C(=O)N[C@@H](C)CS(C)(=O)=O
2,73 to 79,CSC[C@H](C)NC(=O)c1c(Cl)cccc1C(=O)Nc1ccc(Cc2cc(C(F)(F)F)cc(C(F)(F)F)c2)nc1C
3,85 to 94,CSC[C@H](C)NC(=O)c1c(C)cccc1C(=O)Nc1ccc(Cc2cc(C(F)(F)F)cc(C(F)(F)F)c2)cc1C
4,162 to 165,Cc1cc(Cc2cc(C(F)(F)F)cc(C(F)(F)F)c2)ccc1NC(=O)c1cccc(Cl)c1C(=O)N[C@@H](C)C[S+](C)[O-] (stereo partly shown)

row,SMILES,melting point [°C]
1,CSC[C@H](C)NC(=O)c1c(Cl)cccc1C(=O)Nc1ccc(Cc2cc(C(F)(F)F)cc(C(F)(F)F)c2)cc1C,57 to 62

# Test system: organophosphorous- and carbamate-resistant Myzus persicae
# Conditions: 100 ppm; 7 days after application; 28° C. greenhouse
row,SMILES,insect mortality [%]
1,CSC[C@H](C)NC(=O)c1c(Cl)cccc1C(=O)Nc1ccc(Cc2cc(C(F)(F)F)cc(C(F)(F)F)c2)cc1C [Compound No. 19],100
2,CSC[C@H](C)NC(=O)c1c(Cl)cccc1C(=O)Nc1ccc(Cc2cc(Br)cc(Br)c2)cc1C [compound 152],100
